Laboratory results taken from the CheMixHub drug solubility set.

Test: xn = mol fraction of the nth substance listed, in the solute-free solvent

Nc1nccnc1Cl + CN(C)C=O + O
solubility (g/100 g solution)
Conditions	278.15 K	283.15 K	288.15 K	293.15 K	298.15 K	303.15 K	308.15 K	313.15 K	318.15 K	323.15 K
x2 = 0.02666	0.123	0.162	0.208	0.257	0.308	0.359	0.41	0.469	0.522	0.579
x2 = 0.05806	0.379	0.491	0.623	0.761	0.903	1.04	1.18	1.34	1.47	1.62
x2 = 0.09556	0.721	0.929	1.17	1.43	1.69	1.95	2.2	2.48	2.72	2.98
x2 = 0.1412	1.01	1.3	1.64	2.01	2.38	2.75	3.11	3.5	3.86	4.23
x2 = 0.1978	1.14	1.5	1.9	2.35	2.8	3.27	3.75	4.24	4.69	5.16
x2 = 0.27	1.26	1.69	2.14	2.67	3.17	3.72	4.29	4.84	5.41	6.03
x2 = 0.3652	1.38	1.82	2.33	2.93	3.56	4.17	4.81	5.48	6.15	6.86
x2 = 0.4965	1.5	2.02	2.55	3.24	3.93	4.64	5.37	6.21	7	7.83
x2 = 0.6893	1.59	2.12	2.72	3.45	4.22	5.01	5.87	6.75	7.69	8.67

S=c1[nH]ncs1 + CO + O
solubility (g/100 g solution)
Conditions	278.15 K	283.15 K	288.15 K	293.15 K	298.15 K	303.15 K	308.15 K	313.15 K	318.15 K	323.15 K
x2 = 0.1	0.5	0.691	0.906	1.21	1.6	2.03	2.55	3.35	4.36	5.36
x2 = 0.2	0.926	1.24	1.54	2.06	2.68	3.38	4.35	5.66	6.96	8.64
x2 = 0.3	1.39	1.97	2.65	3.39	4.42	5.59	7.12	9.03	11.2	13.9
x2 = 0.4	2.53	3.26	4.24	5.33	6.73	8.48	10.5	13.2	16.4	19.8
x2 = 0.5	3.89	4.96	6.04	7.5	9.43	11.5	13.7	16.8	20	23.9
x2 = 0.6	5.2	6.6	8.03	9.72	11.6	14	17	19.9	23.3	27.5
x2 = 0.7	6.84	8.43	10.2	12	14.1	16.4	19.3	22.6	26.2	29.6
x2 = 0.8	8.37	10.1	11.9	13.8	16	18.5	21.4	24.6	28.2	31.5
x2 = 0.9	10.1	11.9	13.7	15.8	18	20.5	23.4	26.6	30	33.2

CC(N)C(=O)O (stereo unspecified) + O + CCO
solubility (g/100 g solution)
Conditions	x2 = 0.1	x2 = 0.2	x2 = 0.3	x2 = 0.4	x2 = 0.5	x2 = 0.6	x2 = 0.7	x2 = 0.8	x2 = 0.9
283.15 K	0.0667	0.0909	0.102	0.126	0.31	0.534	1.1	1.98	4.36
293.15 K	0.0741	0.0951	0.11	0.185	0.389	0.66	1.35	2.59	5.5
303.15 K	0.0895	0.102	0.127	0.245	0.454	0.83	1.68	3.23	6.66
313.15 K	0.0998	0.114	0.136	0.268	0.573	1.05	2.12	3.96	7.99
323.15 K	0.104	0.124	0.196	0.347	0.688	1.37	2.62	4.97	9.53

CCC(C)n1ncn(-c2ccc(N3CCN(c4ccc(OCC5COC(Cn6cncn6)(c6ccc(Cl)cc6Cl)O5)cc4)CC3)cc2)c1=O (stereo unspecified) + ClC(Cl)Cl + CO
solubility (g/100 g solution)
Conditions	x2 = 0.02929	x2 = 0.06358	x2 = 0.1043	x2 = 0.1533	x2 = 0.2136	x2 = 0.2895	x2 = 0.3879	x2 = 0.5207	x2 = 0.7097
288.15 K	0.123	0.229	0.436	0.789	1.79	5.31	16.6	24.9	29.3
293.15 K	0.147	0.272	0.515	0.931	2.3	6.83	18.2	26.3	30.1
298.15 K	0.174	0.318	0.607	1.09	2.88	8.58	19.9	27.7	30.9
303.15 K	0.205	0.373	0.708	1.29	3.66	10.8	21.7	29.1	31.7
308.15 K	0.242	0.434	0.827	1.5	4.54	13.4	23.6	30.4	32.5

CN1CCN(C2=Nc3cc(Cl)ccc3Nc3ccccc32)CC1 + CC(C)=O + Cc1ccccc1
solubility (g/100 g solution)
Conditions	x2 = 0.1503	x2 = 0.2841	x2 = 0.4047	x2 = 0.5141	x2 = 0.6136	x2 = 0.7038	x2 = 0.7876	x2 = 0.8642	x2 = 0.9343
293.15 K	4.2	5.72	6.98	7.87	8.37	8.49	8.42	8.02	7.41
298.15 K	4.59	6.06	7.92	8.77	9.44	9.83	9.53	9.03	8.42
303.15 K	5.42	7.16	8.86	9.9	10.6	10.7	9.99	9.78	8.81
308.15 K	6.11	8.41	9.86	10.9	11.9	12.3	11.6	11.3	10.4
313.15 K	7.38	9.81	11.5	12.7	13.4	13.6	13.4	12.9	11.9
318.15 K	8.97	11.4	13.2	14.3	15.4	15.3	15.5	14.8	13.4

Cc1ncc(C[n+]2csc(CCO)c2C)c(N)n1.O=[N+]([O-])[O-] + O + CC(C)O
solubility (g/100 g solution)
Conditions	278.15 K	283.15 K	288.15 K	293.15 K	298.15 K	303.15 K	308.15 K	313.15 K
x2 = 0.3	0.0345	0.0413	0.051	0.06	0.0744	0.093	0.115	0.151
x2 = 0.4	0.0937	0.119	0.15	0.172	0.199	0.243	0.297	0.385
x2 = 0.5	0.228	0.257	0.305	0.372	0.453	0.573	0.715	0.897
x2 = 0.6	0.364	0.439	0.552	0.705	0.814	1.01	1.28	1.57
x2 = 0.7	0.637	0.765	0.916	1.12	1.38	1.71	2.11	2.61
x2 = 0.8	0.968	1.15	1.39	1.74	2.15	2.63	3.14	3.84
x2 = 0.9	1.18	1.47	1.83	2.33	2.85	3.48	4.26	5.2

Cl.N=C(N)N + CN1CCCC1=O + CCCO
solubility (g/100 g solution)
Conditions	278.15 K	283.15 K	288.15 K	293.15 K	298.15 K	303.15 K	308.15 K	313.15 K	318.15 K	323.15 K
x2 = 0.06317	8.4	9.4	10.7	11.5	12.7	13.3	15.1	16.1	17.7	18.6
x2 = 0.2064	15.9	17	17.8	19.2	20.1	21.4	22.1	23.2	24.7	25.3
x2 = 0.3774	28.5	29.2	30.4	31	32.1	32.6	33.7	34.4	35.4	35.9
x2 = 0.5858	37.2	37.8	39.1	40.2	41.4	42.1	43.4	44.3	46	47.3
x2 = 0.845	41.9	43.3	44.2	45.5	46.7	47.9	49.3	50.4	52.6	53.1

Cc1ncc(C[n+]2csc(CCO)c2C)c(N)n1.O=[N+]([O-])[O-] + O + CC(C)=O
solubility (g/100 g solution)
Conditions	278.15 K	283.15 K	288.15 K	293.15 K	298.15 K	303.15 K	308.15 K	313.15 K
x2 = 0.3	0.0632	0.0724	0.0831	0.0951	0.118	0.138	0.161	0.193
x2 = 0.4	0.169	0.198	0.227	0.252	0.298	0.344	0.393	0.437
x2 = 0.5	0.394	0.441	0.498	0.556	0.639	0.733	0.842	0.951
x2 = 0.6	0.648	0.746	0.87	0.996	1.16	1.37	1.64	2
x2 = 0.7	1.08	1.24	1.45	1.69	1.98	2.3	2.69	3.23
x2 = 0.8	1.55	1.8	2.14	2.53	2.97	3.56	4.14	4.86
x2 = 0.9	1.85	2.17	2.54	3.11	3.62	4.28	5	5.96
